Reference: paper PMC5835169 (Clinical microbiology and infection : the official …, 2017)
Values after ≈ are worked out from the molar mass of the structure shown. Where no end group is shown, it is not given here.

Columns and labels:
P. aeruginosa P005 = assay type: cell-based; details: MDR strain P005 isolated from cystic fibrosis patients
mouse lungs = assay: Pulmonary toxicity in uninfected mice; assay type: in vivo, C57BL/6J mice; details: for pulmonary toxicity: 0.35 mg/kg i.t., total inflammatory cells, differential cell counts, inflammation-associated genes; for effect on cell differential and inflammatory mediators in the lungs: uninfected mice, 7µg i.t. (7 times the minimum effective dose), 24h
P. aeruginosa TRPA108 = assay type: cell-based; details: MDR strain TRPA108 isolated from cystic fibrosis patients
[1] = tested on: differentiated primary HBE cells; assay: Transepithelial Electrical Resistance; assay type: cell-based, human; details: apical, 24 hours after administration
P. aeruginosa TRPA321 = assay type: cell-based; details: MDR strain TRPA321 isolated from cystic fibrosis patients
P. aeruginosa P003 = assay type: cell-based; details: MDR strain P003 isolated from cystic fibrosis patients
P. aeruginosa P001 = assay type: cell-based; details: MDR strain P001 isolated from cystic fibrosis patients
P. aeruginosa P002 = assay type: cell-based; details: MDR strain P002 isolated from cystic fibrosis patients
P. aeruginosa P004 = assay type: cell-based; details: MDR strain P004 isolated from cystic fibrosis patients
P. aeruginosa TRPA111 = assay type: cell-based; details: MDR strain TRPA111 isolated from cystic fibrosis patients
P. aeruginosa PAO1 = assay type: cell-based; details: control strain PAO1 susceptible to antibiotics and AMPs
HBE cells = assay: Toxicity to HBE cells; assay type: cell-based, human; details: 16µM

## CC[C@H](C)[C@H](NC(=O)[C@H](CCCCN)NC(=O)[C@H](CCC(=O)O)NC(=O)[C@H](CCCCN)NC(=O)[C@H](CO)NC(=O)[C@H](CCCCN)NC(=O)[C@H](CCCNC(=N)N)NC(=O)[C@H](Cc1ccccc1)NC(=O)[C@H](Cc1ccccc1)NC(=O)[C@H](CC(=O)O)NC(=O)CNC(=O)[C@H](CC(C)C)NC(=O)[C@@H](N)CC(C)C)C(=O)NCC(=O)N[C@@H](CCCCN)C(=O)N[C@@H](CCC(=O)O)C(=O)N[C@@H](Cc1ccccc1)C(=O)N[C@@H](CCCCN)C(=O)N[C@@H](CCCNC(=N)N)C(=O)N[C@H](C(=O)N[C@H](C(=O)N[C@@H](CCC(N)=O)C(=O)N[C@@H](CCCNC(=N)N)C(=O)N[C@H](C(=O)N[C@@H](CCCCN)C(=O)N[C@@H](CC(=O)O)C(=O)N[C@@H](Cc1ccccc1)C(=O)N[C@@H](CC(C)C)C(=O)N[C@@H](CCCNC(=N)N)C(=O)N[C@@H](CC(N)=O)C(=O)N[C@@H](CC(C)C)C(=O)N[C@H](C(=O)N1CCC[C@H]1C(=O)N[C@@H](CCCNC(=N)N)C(=O)N[C@H](C(=O)N[C@@H](CCC(=O)O)C(=O)N[C@@H](CO)C(=O)O)[C@@H](C)O)C(C)C)[C@@H](C)CC)C(C)C)[C@@H](C)CC [LL37, reference compound]
P. aeruginosa P005
  MIC: 8 µM (≈ 35.9 µg/mL)
Mouse lungs
  pulmonary toxicity: does not cause pulmonary toxicity
  effect on cell differential and inflammatory mediators in the lungs: no effect
P. aeruginosa TRPA108
  MIC: 2 µM (≈ 8.99 µg/mL)
[1]; 32µM peptide in PBS
  final reduction in TEER / recovery: 1/2
[1]; 64µM peptide in PBS
  final reduction in TEER / recovery: 2/3
P. aeruginosa TRPA321
  MIC: 32 µM (≈ 144 µg/mL)
P. aeruginosa P003
  MIC: 32 µM (≈ 144 µg/mL)
P. aeruginosa P001
  MIC: 32 µM (≈ 144 µg/mL)
P. aeruginosa P002
  MIC: 32 µM (≈ 144 µg/mL)
P. aeruginosa P004
  MIC: 8 µM (≈ 35.9 µg/mL)
P. aeruginosa TRPA111
  MIC: 2 µM (≈ 8.99 µg/mL)

## RRWVRRVRRVWRRVVRVVRRWVRR [WLBU2]
P. aeruginosa P005
  MIC: 2 µM
Mouse lungs
  pulmonary toxicity: does not cause pulmonary toxicity
  effect on cell differential and inflammatory mediators in the lungs: no effect
P. aeruginosa TRPA108
  MIC: 1 µM
[1]; 32µM peptide in PBS
  final reduction in TEER / recovery: completely recovered
[1]; 64µM peptide in PBS
  final reduction in TEER / recovery: completely recovered
P. aeruginosa TRPA321
  MIC: 2 µM
P. aeruginosa P003
  MIC: 6 µM
P. aeruginosa P001
  MIC: 6 µM
P. aeruginosa PAO1
  MIC: 2 µM
HBE cells
  toxicity to HBE cells: not toxic
P. aeruginosa P002
  MIC: 4 µM
P. aeruginosa P004
  MIC: 2 µM
P. aeruginosa TRPA111
  MIC: 1 µM
